# Experimental data published in PubChem BioAssay (NCI).
#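 All cell lines were grown in 96-well plates and treated with compound for 48 hours. At the GI50, growth is halved. At the TGI there is no net growth.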
# How the values were obtained:
# Experiment in all cases: growth of human tumour cells (NCI), 48 h
# TK-10 renal = system: TK-10 renal
# ACHN renal = system: ACHN renal
# SF-295 CNS = system: SF-295 CNS
# KM12 colon = system: KM12 colon
# HL-60(TB) leukemia = system: HL-60(TB) leukemia
# RXF 393 renal = system: RXF 393 renal
# RPMI-8226 leukemia = system: RPMI-8226 leukemia
# SR leukemia = system: SR leukemia
# MCF7 breast = system: MCF7 breast
# T-47D breast = system: T-47D breast
Structure (SMILES),TGI (TK-10 renal) [µM],TGI (ACHN renal) [µM],TGI (SF-295 CNS) [µM],TGI (KM12 colon) [µM],TGI (HL-60(TB) leukemia) [µM],TGI (RXF 393 renal) [µM],TGI (RPMI-8226 leukemia) [µM],TGI (SR leukemia) [µM],GI50 (TK-10 renal) [µM],GI50 (ACHN renal) [µM],GI50 (RPMI-8226 leukemia) [µM],GI50 (MCF7 breast) [µM],TGI (MCF7 breast) [µM],GI50 (SF-295 CNS) [µM],GI50 (KM12 colon) [µM],GI50 (HL-60(TB) leukemia) [µM],GI50 (T-47D breast) [µM],TGI (T-47D breast) [µM],GI50 (RXF 393 renal) [µM]
CCOC(=O)CC1=NC(=Nc2cc(Cl)ccc2Cl)SC1,> 100,> 100,> 100,> 100,> 100,> 100,–,–,–,–,–,–,–,–,–,–,–,–,–
CCOC(=O)C1=C(NC(C)(C)C)OCC1=O,> 100,> 100,> 100,> 100,> 100,–,> 100,> 100,–,–,–,–,–,–,–,–,–,–,–
COc1ccc(CCNCc2cccc(OC)c2OC)cc1OC,> 100,> 100,> 100,> 100,> 100,> 100,> 100,–,–,–,–,–,–,–,–,–,–,–,–
CCOC(=O)CNC(=O)CCCn1c(=O)c2c3ccccc3n(C)c2n2nnc(-c3ccccc3)c12,20.9,33.7,17.4,> 50,> 50,4.41,33.9,–,8.71,9.24,10.7,31.3,> 50,4.83,> 50,20.6,43.9,> 50,1.33
CCN(CC)CCCCCOc1cc(O)c2c(=O)cc(-c3ccccc3)oc2c1,27.1,11.7,5.69,9.37,7.1,3.37,–,–,7.1,3.72,–,1.66,3.83,2.87,2.89,2.67,–,–,1.6
COc1cc(/C=C2\CC3C4CC=C5C[C@@H](N6CCCC6)CC[C@]5(C)C4CC[C@]3(C)[C@H]2OC(C)=O)ccc1OCCN1CCCCC1 (stereo partly specified),1.49,3.73,3.44,1.4,–,3.64,0.119,–,0.211,1.91,0.0109,3.02,> 100,1.85,0.54,–,2.25,3.98,1.63
O=C(N/C(=C\c1ccc(Br)cc1)c1nc2ccccc2s1)c1ccccc1,> 100,> 100,–,> 100,–,> 100,> 100,–,–,–,–,–,–,–,–,–,–,–,–
COC(=O)C1=C(c2cc(OC)c(OC)c(OC)c2)OC(c2cc(OC)c(OC)c(OC)c2)C1COC(C)=O (stereo unspecified),> 100,> 100,> 100,> 100,30.5,> 100,> 100,52.2,–,–,–,–,–,–,–,–,–,–,–
O=C1OC(c2ccccc2)=N/C1=C\c1c(O)cc(O)cc1O,> 100,> 100,–,> 100,–,> 100,> 100,–,–,–,–,–,–,–,–,–,–,–,–
COc1ccc(NC(=O)Nc2ccc(Nc3nc(C)cc(Nc4ccc(C)cc4)n3)cc2)cc1,3.06,3.13,3.18,–,–,3.12,1.65,–,1.68,1.75,0.71,–,–,1.71,–,–,1.78,4.24,1.61
O=C(O)c1ccc(N=Nc2cc(S(=O)(=O)O)c3cccnc3c2O)cc1,> 100,> 100,> 100,> 100,> 100,> 100,> 100,> 100,–,–,–,–,–,–,–,–,–,–,–
CCc1ccccc1-n1c2nc(=O)n(C)c(=O)c-2nc2ccccc21,35.4,16.3,24,34.2,–,30,58.7,–,–,–,–,–,–,–,–,–,–,–,–
O=C(Nc1cccc(C(F)(F)F)c1)c1cccc(NC2=C(Cl)C(=O)N(Cc3ccccc3)C2=O)c1,> 100,85.2,> 100,> 100,28.7,9.29,6.51,–,19.5,15.8,1.89,3.28,> 100,20.2,44.8,5.36,6.28,89.9,2.39
CC(=O)OCC(OC(C)=O)C(OC(C)=O)C(OC(C)=O)C(=O)CNn1c(-c2ccccc2)nc2ccc(Br)cc2c1=O (stereo unspecified),–,> 100,> 100,> 100,> 100,> 100,> 100,> 100,–,–,–,–,–,–,–,–,–,–,–
C[C@H]1COC2(c3ccccc3)CCC(=O)N12 (stereo partly specified),> 100,> 100,> 100,> 100,–,> 100,> 100,> 100,–,–,–,–,–,–,–,–,–,–,–
CC(C)CC(CNC(Cc1ccc(Cl)cc1)C(N)=O)NC(=O)C(Cc1cnc[nH]1)NC(=O)CNC(=O)C(NC(=O)C(C)NC(=O)C(Cc1c[nH]c2ccccc12)NC(=O)C(CCC(=O)O)NC(=O)C(N)Cc1ccccc1)C(C)C (stereo unspecified),–,> 133,> 133,> 133,> 133,> 133,> 133,> 133,–,–,–,–,–,–,–,–,–,–,–

Structure (SMILES),TGI (TK-10 renal) [µM],TGI (ACHN renal) [µM],TGI (SF-295 CNS) [µM],TGI (KM12 colon) [µM],TGI (HL-60(TB) leukemia) [µM],TGI (RXF 393 renal) [µM],TGI (RPMI-8226 leukemia) [µM],TGI (SR leukemia) [µM],GI50 (TK-10 renal) [µM],GI50 (ACHN renal) [µM],GI50 (RPMI-8226 leukemia) [µM],GI50 (MCF7 breast) [µM],TGI (MCF7 breast) [µM],GI50 (SF-295 CNS) [µM],GI50 (KM12 colon) [µM],GI50 (HL-60(TB) leukemia) [µM],GI50 (T-47D breast) [µM],TGI (T-47D breast) [µM],GI50 (RXF 393 renal) [µM]
CN(/N=C/c1ccnc2ccccc12)c1ccc([N+](=O)[O-])cc1[N+](=O)[O-],> 100,> 100,> 100,> 100,> 100,> 100,> 100,–,–,–,–,–,–,–,–,–,–,–,–
Cc1ccc2[nH]c(C(=O)NN3C(=O)CSC34CCCC(C)C4)c(-c3ccccc3)c2c1 (stereo unspecified),34.7,36.1,33.5,34.3,–,20.3,31.5,–,17.2,18.3,13.7,15.4,38.5,17.2,16.2,–,20.3,55.2,5.85
CC[C@@H](C)[C@H]([C@H](CC(=O)N1CCC[C@@H]1[C@@H](OC)[C@H](C)C(=O)N[C@H](Cc1ccccc1)c1nccs1)OC)N(C)C(=O)[C@H](NC(=O)[C@@H](C(C)C)N(C)C)C(C)C,98.3,> 100,–,–,–,–,–,–,0.31,–,0.000425,–,> 100,–,0.000425,0.000425,–,> 100,0.0179
O=C(CCC(=O)N/N=C/c1ccccc1O)N/N=C/c1ccccc1O,> 100,–,> 100,> 100,–,44.4,> 100,> 100,–,–,–,–,–,–,–,–,–,–,–
COc1ccc(/C(Cl)=C(\C=O)c2ccc(Br)cc2)cc1OC,> 100,> 100,67.9,> 100,> 100,> 100,> 100,–,–,–,–,–,–,–,–,–,–,–,–
COc1ccc2c(c1OC)-c1c(c3ccc([N+](=O)[O-])cc3c(=O)n1CCCN=[N+]=[N-])C2=O,> 100,22.1,28.4,> 100,–,> 100,> 100,–,> 100,3.63,5.18,11.2,> 100,3.11,> 100,–,5.29,> 100,10.1
O=C(CCc1ccccc1)On1nnc2ccccc2c1=O,96.2,> 100,> 100,> 100,> 100,> 100,–,> 100,–,–,–,–,–,–,–,–,–,–,–
CCOC(=O)c1cc2cc(NC(=O)c3cc4cc([N+](=O)[O-])ccc4n3C)ccc2n1C,70.7,31.9,> 100,> 100,> 100,> 100,> 100,–,19.7,13.5,49.7,44.2,> 100,30.1,49,> 100,42,> 100,41
Cc1ccc(C2SCc3nc4ccc(C(=O)c5ccccc5)cc4n32)cc1 (stereo unspecified),35.1,> 56.9,33,35.2,–,70.3,> 95,–,13.9,14.1,10.3,11.9,> 76.7,8.21,6.49,–,14,> 63.5,21.4
Cc1[nH]c(=O)nc(CC(O)(c2ccccc2)c2ccccc2)c1-c1ccccc1,> 100,> 100,> 100,> 100,> 100,> 100,–,–,–,–,–,–,–,–,–,–,–,–,–
NS(=O)(=O)c1ccc(NC(=O)CC(=O)Nc2ccc(S(N)(=O)=O)cc2)cc1,> 100,> 100,> 100,–,> 100,–,> 100,> 100,–,–,–,–,–,–,–,–,–,–,–
CCc1ccc(/C(C)=N/NC(N)=S)cc1,> 100,–,> 100,> 100,–,> 100,> 100,> 100,–,–,–,–,–,–,–,–,–,–,–
COc1cc2nc(-c3ccc(-n4cncc4-c4ccc(N)cc4)cc3)sc2c(OC)c1OC,> 100,> 100,7.14,–,–,21.1,–,–,4.93,8.56,–,3.02,> 100,1.53,–,–,1.59,6.71,4.41
COc1ccc(/C=C/c2nc(=S)[nH][nH]2)cc1,> 100,> 100,> 100,–,> 100,> 100,> 100,> 100,–,–,–,–,–,–,–,–,–,–,–
N#CCC(=O)N/N=C1/C(=O)NC(=O)C(=O)C1c1nc2ccccc2s1 (stereo unspecified),> 100,> 100,> 100,–,–,> 100,> 100,> 100,–,–,–,–,–,–,–,–,–,–,–
